Experimental data from article PMC2967639 (Drug and alcohol dependence, 2010).

Legend:
LPS-induced paw edema [1] = settings: ref Naidu et al., under review; cited from earlier work
wild type mice = settings: i.v., ref Smith et al., 1994; cited from earlier work
[2] = ref Hunt et al., 1980; Widman et al., 1974; cited from earlier work
[3] = blood and brain tissue concentrations of THC and CBC by GC/MS; assay type: in vivo, mouse
LPS-induced paw edema [4] = assay: LPS-induced paw edema model; assay type: in vivo, mouse; settings: for LPS-induced paw edema (change in paw thickness of LPS-injected paw): i.p. 1 h before, 6 and 23 h after LPS, dose-response, measured 24 h, Figure 4A; for paw thickness of the LPS-injected paw, post hoc vs vehicle: 10, 30 and 100 mg/kg CBC, 10 and 30 mg/kg THC; for paw thickness of the saline-injected (contralateral) paw: data not shown; for effect of antagonist given alone on LPS paw edema: 3 mg/kg i.p. 30 min before each vehicle injection
male ICR mice = assay: mouse tetrad assay; assay type: in vivo
CB1 receptor = settings: ref Booker et al., 2009; cited from earlier work

## C[C@@H]1C[C@H]2[C@@H]3CCC4=CC(=O)C=C[C@]4(C)[C@@]3(F)[C@@H](O)C[C@]2(C)[C@@]1(O)C(=O)CO [dexamethasone]
LPS-induced paw edema [1]
  effect on LPS induced paw edema: ameliorated LPS induced paw edema

## NC(=O)c1cccc(-c2cccc(OC(=O)NC3CCCCC3)c2)c1 [URB597]
LPS-induced paw edema [1]
  effect on LPS induced paw edema: ameliorated LPS induced paw edema

## CCCCC/C=C\C/C=C\C/C=C\C/C=C\CCCC(=O)NCCO [anandamide]
Wild type mice
  fold less potent in producing antinociception than hypomotility, catalepsy and hypothermia: 3 – 4 fold

## CCCCCc1cc(O)c2c(c1)OC(C)(C)[C@@H]1CCC(C)=C[C@@H]21 [THC, Δ^9-tetrahydrocannabinol]
[2]
  THC in blood bound to plasma: About 90%
  THC in blood bound to red blood cells: 10%
  plasma THC bound to lipoproteins: 95 – 99%
[3]; THC 0.3 mg/kg i.v. 10 min after CBC 3-100 mg/kg i.v.
  effect of THC on CBC blood and brain levels: no effects
LPS-induced paw edema [4]
  LPS-induced paw edema (change in paw thickness of LPS-injected paw): dose-related decreases
LPS-induced paw edema [4]; i.p.
  paw thickness of the LPS-injected paw, post hoc vs vehicle: significant decreases
  paw thickness of the saline-injected (contralateral) paw: neither drug affected the paw thickness
LPS-induced paw edema [4]; individual dose-response curves, i.p.
  ED50 (95% confidence intervals), LPS-induced paw edema: 4.0 (2.7 to 5.9) mg/kg
Male ICR mice; THC 0.3 mg/kg i.v.
  activity in the tetrad at threshold dose: inactive

## Cc1c(C(=O)NN2CCCCC2)nn(-c2ccc(Cl)cc2Cl)c1-c1ccc(Cl)cc1 [rimonabant]
LPS-induced paw edema [4]
  effect of antagonist given alone on LPS paw edema: Neither rimonabant nor SR144528 given alone affected LPS paw edema
LPS-induced paw edema [4]; antagonist 3 mg/kg 30 min before each THC 10 mg/kg i.p. injection, Figure 4B
  antagonism of the anti-edematous effects of THC: but not rimonabant
Male ICR mice; rimonabant 3 mg/kg 10 min before CBC 100 mg/kg i.v.
  blockade of the tetrad effects of CBC: failed to block the pharmacological effects of CBC
Male ICR mice; rimonabant 3 mg/kg, 10 min before vehicle or CBC 100 mg/kg
  main effect of rimonabant on the four tetrad measures: no significant main effects

## CCCCCc1cc(O)c2c(c1)OC(C)(CCC=C(C)C)C=C2 (centres unmarked) [CBC, cannabichromene]
[3]; 30 or 100 mg/kg CBC i.v. with THC 0.3 mg/kg i.v.
  effect of CBC on THC levels in brain: significantly elevated
[3]; CBC 3-100 mg/kg i.v., with or without THC 0.3 mg/kg, 30 min, Figure 3C
  CBC levels in blood with increasing doses of CBC: significant increases
[3]; CBC 3-100 mg/kg i.v., with or without THC 0.3 mg/kg, 30 min, Figure 3D
  CBC levels in brain with increasing doses of CBC: significant increases
CB1 receptor
  Ki: > 10 µM
LPS-induced paw edema [4]
  LPS-induced paw edema (change in paw thickness of LPS-injected paw): dose-related decreases
LPS-induced paw edema [4]; i.p.
  paw thickness of the LPS-injected paw, post hoc vs vehicle: significant decreases
  paw thickness of the saline-injected (contralateral) paw: neither drug affected the paw thickness
Male ICR mice; i.v.
  potency in the tetrad relative to THC: substantially less potent than THC

## Cc1c(C(=O)c2cccc3ccccc23)c2cccc3c2n1[C@H](CN1CCOCC1)CO3 [WIN55,212-2]
LPS-induced paw edema [1]
  effect on LPS induced paw edema: ameliorated LPS induced paw edema

## SR144528
LPS-induced paw edema [4]
  effect of antagonist given alone on LPS paw edema: Neither rimonabant nor SR144528 given alone affected LPS paw edema
